We go through 48 molecules from paper PMC11995724, “Antibiotic target discovery by integrated phenotypic and activity-based profiling of electrophilic fragments” (Cell chemical biology, 2025).

Each structure is given as a SMILES string.

The series in a line: in vitro. Particulars: human, hek293t cells.
As to `CC(C)N1C(=O)C[C@H](NC(=O)CCl)[C@H]1c1ccc(Cl)c(F)c1` (racemic) [5-I11, rac-2-chloro-N-[(2R,3S)-2-(4-chloro-3-fluorophenyl)-5-oxo-1-(propan-2-yl)pyrrolidin-3-yl]acetamide], the viability (commonly a read-out of living cells in per cent, often relative to untreated cells) at 48 h, 25 µM was determined as 0.807%. In the case of `CC(Cl)C(=O)N[C@H]1CCC(=O)N[C@@H]1c1ccnn1C` (mixture of isomers) [6-B14, rac-2-chloro-N-[(2R,3R)-2-(1-methyl-1H-pyrazol-5-yl)-6-oxopiperidin-3-yl]propanamide], the viability at 48 h, 25 µM was found to be 92.4%. Then `CCN1C(=O)CC[C@H](CNC(=O)C(C)Cl)[C@H]1c1cnn(C)c1` (mixture of isomers) [6-L13, rac-2-chloro-N-{[(2R,3S)-1-ethyl-2-(1-methyl-1H-pyrazol-4-yl)-6-oxopiperidin-3-yl]methyl}propanamide], with 100%. Then `CC(Cl)C(=O)NC[C@H]1CCCN(C2CC2)[C@@H]1c1ccnn1C` (mixture of isomers) [6-P20, rac-2-chloro-N-{[(2R,3S)-1-cyclopropyl-2-(1-methyl-1H-pyrazol-5-yl)piperidin-3-yl]methyl}propanamide], with 101%; and `CC(Cl)C(=O)N[C@H]1CCO[C@@H]1c1nccn1-c1ccccc1` (mixture of isomers) [7-A12, rac-2-chloro-N-[(2R,3R)-2-(1-phenyl-1H-imidazol-2-yl)oxolan-3-yl]propanamide], with 93.1%; and `CC(Cl)C(=O)N1C[C@@H]2CCC[C@@]2(c2nc(-c3cnccn3)no2)C1` (mixture of isomers) [7-C03, rac-1-[(3aR,6aR)-3a-[3-(pyrazin-2-yl)-1,2,4-oxadiazol-5-yl]-octahydrocyclopenta[c]pyrrol-2-yl]-2-chloropropan-1-one], with 113%. With `CC(Cl)C(=O)N[C@H]1C[C@@H]1c1cnn(-c2ccccc2)c1` (mixture of isomers) [7-M08, rac-2-chloro-N-[(1R,2S)-2-(1-phenyl-1H-pyrazol-4-yl)cyclopropyl]propanamide] the figure was 76.7%; with `CC(Cl)C(=O)N[C@H]1CN(Cc2ccccc2)C[C@@H]1c1ccccc1` (mixture of isomers) [7-N09, rac-N-[(3R,4S)-1-benzyl-4-phenylpyrrolidin-3-yl]-2-chloropropanamide], 88.2%. On to `COC(=O)[C@H]1[C@@H](C(=O)CCl)C1(C)C` (racemic) [10-A11, rac-methyl (1R,3S)-3-(2-chloroacetyl)-2,2-dimethylcyclopropane-1-carboxylate], for which the viability at 48 h, 25 µM was determined as 74.8%. Turning to `CC(C)(C)OC(=O)[C@H]1C[C@@H]1C(=O)CCl` (racemic) [10-C13, rac-tert-butyl (1R,2R)-2-(2-chloroacetyl)cyclopropane-1-carboxylate], the viability at 48 h, 25 µM was determined as 1.62%. With `C=CC(=O)NCC1CCN(S(=O)(=O)C(F)(F)F)CC1` [1-A03, N-[(1-trifluoromethanesulfonylpiperidin-4-yl)methyl]prop-2-enamide] the figure was 83.3%; with `C=CC(=O)Nc1ccoc1C(=O)c1ccc(C)cc1` [1-A04, N-[2-(4-methylbenzoyl)furan-3-yl]prop-2-enamide], 0.123%. Consider `C=CC(=O)NC1(c2ncon2)CC1` [1-A05, N-[1-(1,2,4-oxadiazol-3-yl)cyclopropyl]prop-2-enamide], for which the viability at 48 h, 25 µM was 68.7%.

On to `C=CC(=O)NCC1CCC2(CCCC2)O1` (stereo not drawn) [1-A06, N-({1-oxaspiro[4.4]nonan-2-yl}methyl)prop-2-enamide], for which the viability at 48 h, 25 µM amounted to 106%.

For the molecule `C=CC(=O)NCC1CCN(C2CC2)CC1` [1-A07, N-[(1-cyclopropylpiperidin-4-yl)methyl]prop-2-enamide], the viability at 48 h, 25 µM was found to be 80.2%. With `C=CC(=O)NC1CCCN(c2cc(N3CCOCC3)ncn2)C1` (stereo not drawn) [1-A08, N-{1-[6-(morpholin-4-yl)pyrimidin-4-yl]piperidin-3-yl}prop-2-enamide] the figure was 103%; with `C=CC(=O)N1CC(C(N)=O)Oc2ccccc21` (stereo not drawn) [1-A09, 4-(prop-2-enoyl)-3,4-dihydro-2H-1,4-benzoxazine-2-carboxamide], 24.7%; with `C=CC(=O)N(CC)c1cccc(C)c1` [1-A10, N-ethyl-N-(3-methylphenyl)prop-2-enamide], 76.6%. Then `C=CC(=O)Nc1cnn(CC(F)(F)F)c1` [1-A11, N-[1-(2,2,2-trifluoroethyl)-1H-pyrazol-4-yl]prop-2-enamide], with 91.8%; and `C=CC(=O)Nc1cc(C(=O)O)ccc1O` [1-A12, 4-hydroxy-3-(prop-2-enamido)benzoic acid], with 75.1%. Then `C=CC(=O)NCCc1csc(-c2ccccc2)n1` [1-A13, N-[2-(2-phenyl-1,3-thiazol-4-yl)ethyl]prop-2-enamide], with 88.5%. With `C=CC(=O)NC1CCc2ccccc21` (stereo not drawn) [1-A14, N-(2,3-dihydro-1H-inden-1-yl)prop-2-enamide], the viability at 48 h, 25 µM was 107%.

In the case of `C=CC(=O)Nc1cc(S(=O)(=O)N2CCCCCC2)ccc1OC` [1-A15, N-[5-(azepane-1-sulfonyl)-2-methoxyphenyl]prop-2-enamide], the viability at 48 h, 25 µM is 1.58%.

As for `C=CC(=O)Nc1cccc(-c2nnnn2C(C)C)c1` [1-A16, N-{3-[1-(propan-2-yl)-1H-1,2,3,4-tetrazol-5-yl]phenyl}prop-2-enamide], the viability at 48 h, 25 µM was determined as 98.3%. Then `C=CC(=O)NCC1(c2ccccc2Cl)CCCCC1` [1-A17, N-{[1-(2-chlorophenyl)cyclohexyl]methyl}prop-2-enamide], with 64.2%; and `C=CC(=O)Nc1ccccc1CCC(N)=O` [1-A18, N-[2-(2-carbamoylethyl)phenyl]prop-2-enamide], with 125%.

With `C=CC(=O)Nc1ccccc1CCSC` [1-A19, N-{2-[2-(methylsulfanyl)ethyl]phenyl}prop-2-enamide], the viability at 48 h, 25 µM is 93.5%. Then `C=CC(=O)NC(C)(Cn1cccn1)C(N)=O` (stereo not drawn) [1-A20, N-{1-carbamoyl-1-[(1H-pyrazol-1-yl)methyl]ethyl}prop-2-enamide], with 113%; and `C=CC(=O)NCc1cc(-c2ccco2)on1` [1-A21, N-{[5-(furan-2-yl)-1,2-oxazol-3-yl]methyl}prop-2-enamide], with 166%; and `C=CC(=O)N1CCCn2cccc2C12CCOCC2` [1-A22, 1-{2',3',4',5'-tetrahydrospiro[oxane-4,1'-pyrrolo[1,2-a][1,4]diazepin]-2'-yl}prop-2-en-1-one], with 109%. For `C=CC(=O)NC1CCCN(C(=O)CCC(F)(F)F)C1` (stereo not drawn) [1-B03, N-[1-(4,4,4-trifluorobutanoyl)piperidin-3-yl]prop-2-enamide], the viability at 48 h, 25 µM was 108%. Then `C=CC(=O)N(Cc1ccc(Cl)cc1Cl)CC1CCC(O)C1` (stereo not drawn) [1-B04, N-[(2,4-dichlorophenyl)methyl]-N-[(3-hydroxycyclopentyl)methyl]prop-2-enamide], with 26.4%; and `C=CC(=O)N(C)Cc1cc(-c2ccccc2)[nH]n1` [1-B05, N-methyl-N-[(5-phenyl-1H-pyrazol-3-yl)methyl]prop-2-enamide], with 92.7%. Then `C=CC(=O)NC1CC2CCC(C1)S2` (stereo not drawn) [1-B06, N-{8-thiabicyclo[3.2.1]octan-3-yl}prop-2-enamide], with 84.7%.

With `C=CC(=O)NC(Cc1ccccc1)c1ncco1` (stereo not drawn) [1-B07, N-[1-(1,3-oxazol-2-yl)-2-phenylethyl]prop-2-enamide], the viability at 48 h, 25 µM amounted to 118%. For the molecule `C=CC(=O)NC(C)c1cc2cnccc2o1` (stereo not drawn) [1-B08, N-(1-{furo[3,2-c]pyridin-2-yl}ethyl)prop-2-enamide], the viability at 48 h, 25 µM was 80.6%.

As for `C=CC(=O)N1CCOC(Cn2nc(C)nc2C)C1` (stereo not drawn) [1-B09, 1-{2-[(3,5-dimethyl-1H-1,2,4-triazol-1-yl)methyl]morpholin-4-yl}prop-2-en-1-one], the viability at 48 h, 25 µM came out at 161%.

Consider `C=CC(=O)N1CCC[C@H]1C(=O)Nc1cccc(C)n1` [1-B10, (2S)-N-(6-methylpyridin-2-yl)-1-(prop-2-enoyl)pyrrolidine-2-carboxamide], for which the viability at 48 h, 25 µM was found to be 77.1%. With `C=CC(=O)N(Cc1c(C)cccc1C)C1CCc2nc(C)nn2C1` (stereo not drawn) [1-B11, N-[(2,6-dimethylphenyl)methyl]-N-{2-methyl-5H,6H,7H,8H-[1,2,4]triazolo[1,5-a]pyridin-6-yl}prop-2-enamide], the viability at 48 h, 25 µM was 114%.

As to `C=CC(=O)N(C)C1CCN(c2cnccn2)CC1` [1-B12, N-methyl-N-[1-(pyrazin-2-yl)piperidin-4-yl]prop-2-enamide], the viability at 48 h, 25 µM came to 70.1%.

For `C=CC(=O)NC(c1ccccc1)c1nc(C)no1` (stereo not drawn) [1-B13, N-[(3-methyl-1,2,4-oxadiazol-5-yl)(phenyl)methyl]prop-2-enamide], the viability at 48 h, 25 µM came out at 109%.

`C=CC(=O)Nc1c(OC)nc(Cl)nc1OC` [1-B14, N-(2-chloro-4,6-dimethoxypyrimidin-5-yl)prop-2-enamide]: the viability at 48 h, 25 µM stood at 60.2%. As for `C=CC(=O)N(Cc1sc(C)nc1C)[C@@H](C)[C@H]1COC(C)(C)O1` [1-B15, N-[(1S)-1-[(4S)-2,2-dimethyl-1,3-dioxolan-4-yl]ethyl]-N-[(2,4-dimethyl-1,3-thiazol-5-yl)methyl]prop-2-enamide], the viability at 48 h, 25 µM stood at 90%. With `C=CC(=O)Nc1nc(Cc2ccccc2)c(C)s1` [1-B16, N-(4-benzyl-5-methyl-1,3-thiazol-2-yl)prop-2-enamide], the viability at 48 h, 25 µM was determined as 73.2%. Regarding `C=CC(=O)N(Cc1ccc(=O)n(C)c1)C1CCCc2ccccc21` (stereo not drawn) [1-B17, N-[(1-methyl-6-oxo-1,6-dihydropyridin-3-yl)methyl]-N-(1,2,3,4-tetrahydronaphthalen-1-yl)prop-2-enamide], the viability at 48 h, 25 µM was determined as 112%. Take `C=CC(=O)N1CCN(Cc2cc(C)no2)CC1` [1-B18, 1-{4-[(3-methyl-1,2-oxazol-5-yl)methyl]piperazin-1-yl}prop-2-en-1-one]: the viability at 48 h, 25 µM was 70.8%. Then `C=CC(=O)N1CCC(NC(C)=O)C1` (stereo not drawn) [1-B19, N-[1-(prop-2-enoyl)pyrrolidin-3-yl]acetamide], with 114%; and `C=CC(=O)N1CCNC(=O)C1Cc1nc2ccccc2o1` (stereo not drawn) [1-B20, 3-[(1,3-benzoxazol-2-yl)methyl]-4-(prop-2-enoyl)piperazin-2-one], with 82.9%.
